Values of other authors, collected in US8329231B2, “Method of preventing photo-aging with ashwagandha and Indian gooseberry” (Nutragenesis, LLC, priority 2008, dated 2012).

Settings: values from the literature

## O=C1O[C@H]([C@@H](O)CO)C(O)=C1O [Vitamin C]
  HORAC (published, literature): 0 units
